Source: the NIST ThermoML archive (doi:10.1016/j.jct.2016.04.003)
Numbers after ± are expanded uncertainties.

Assay: xn = mol fraction of the nth substance listed
Details: for surface tension liquid-gas: Drop volume; for viscosity / speed of sound / mass density: 99 kPa, Liquid; for viscosity: Capillary tube (Ostwald / Ubbelohde) method; for speed of sound: Frequency=3 MHz, Sing-around technique in a fixed-path interferometer; for mass density: Vibrating tube method

CCC[n+]1ccccc1.F[B-](F)(F)F [1-propylpyridinium tetrafluoroborate] + O
Details | mass density [kg/m3] | speed of sound [m/s] | surface tension liquid-gas [mN/m] | viscosity [mPa·s]
293.15 K, x1 = 0.0185 | 1034.4 ± 1.1 | 1537.2 ± 1.3 | – | –
293.15 K, x1 = 0.028 | – | – | 58.5 ± 0.6 | –
293.15 K, x1 = 0.0287 | 1050.5 ± 1 | 1551 ± 1.2 | – | –
293.15 K, x1 = 0.0466 | 1074 ± 1 | 1568.7 ± 1.2 | – | –
293.15 K, x1 = 0.0492 | – | – | – | 1.359 ± 0.11
293.15 K, x1 = 0.0551 | – | – | 56.1 ± 0.6 | –
293.15 K, x1 = 0.0766 | 1103.9 ± 1 | 1590.8 ± 1.3 | – | –
293.15 K, x1 = 0.0952 | – | – | – | 1.827 ± 0.15
293.15 K, x1 = 0.0964 | 1119 ± 1 | 1602.6 ± 1.3 | – | –
293.15 K, x1 = 0.1008 | – | – | 54 ± 0.6 | –
293.15 K, x1 = 0.1522 | – | – | 52.7 ± 0.6 | –
293.15 K, x1 = 0.1948 | – | – | – | 2.933 ± 0.23
293.15 K, x1 = 0.1965 | – | – | 52 ± 0.6 | –
293.15 K, x1 = 0.2011 | 1169.1 ± 1 | 1640.9 ± 1.3 | – | –
293.15 K, x1 = 0.2588 | – | – | – | 4.438 ± 0.36
293.15 K, x1 = 0.2858 | 1191.6 ± 1 | 1651.5 ± 1.4 | – | –
293.15 K, x1 = 0.2947 | – | – | 51.5 ± 0.6 | –
293.15 K, x1 = 0.3451 | – | – | 51.4 ± 0.6 | –
293.15 K, x1 = 0.3891 | – | – | – | 8.303 ± 0.67
293.15 K, x1 = 0.3968 | – | – | 51.2 ± 0.6 | –
293.15 K, x1 = 0.3993 | 1211.3 ± 1 | 1654.2 ± 1.5 | – | –
293.15 K, x1 = 0.4779 | – | – | 51.1 ± 0.6 | –
293.15 K, x1 = 0.4894 | – | – | – | 13.36 ± 1.1
293.15 K, x1 = 0.4979 | 1223.2 ± 1.1 | 1651.5 ± 1.6 | – | –
293.15 K, x1 = 0.5772 | 1230.6 ± 1.1 | 1648.1 ± 1.7 | – | –
293.15 K, x1 = 0.5827 | – | – | 51.1 ± 0.6 | –
293.15 K, x1 = 0.5942 | – | – | – | 19.97 ± 1.6
293.15 K, x1 = 0.6015 | 1232.5 ± 1.1 | 1647.3 ± 1.8 | – | –
293.15 K, x1 = 0.6695 | 1237.6 ± 1.2 | 1645.8 ± 1.8 | – | –
293.15 K, x1 = 0.6846 | – | – | 51 ± 0.7 | –
293.15 K, x1 = 0.6952 | – | – | – | 33.13 ± 2.7
293.15 K, x1 = 0.7309 | 1241.4 ± 1.2 | 1645.4 ± 1.9 | – | –
293.15 K, x1 = 0.7771 | 1244.2 ± 1.3 | 1645.6 ± 2 | – | –
293.15 K, x1 = 0.7861 | – | – | 51 ± 0.7 | –
293.15 K, x1 = 0.7903 | – | – | – | 53.92 ± 4.3
293.15 K, x1 = 0.8395 | 1247.6 ± 1.4 | 1647.1 ± 2.1 | – | –
293.15 K, x1 = 0.8862 | – | – | 51.1 ± 0.7 | –
293.15 K, x1 = 0.8982 | – | – | – | 97.09 ± 7.9
293.15 K, x1 = 0.9054 | 1251.2 ± 1.5 | 1649.5 ± 2.2 | – | –
293.15 K, x1 = 0.9425 | – | – | 51.2 ± 0.7 | –
293.15 K, x1 = 0.943 | – | – | – | 124.2 ± 10
293.15 K, x1 = 0.9633 | 1254.5 ± 1.6 | 1652.1 ± 2.3 | – | –
293.15 K, x1 = 1 | 1256.7 ± 1.6 | 1653.9 ± 2.4 | 51.3 ± 0.8 | 160 ± 13
303.15 K, x1 = 0.0185 | 1030.5 ± 1.1 | 1550.2 ± 1.3 | – | –
303.15 K, x1 = 0.028 | – | – | 57.2 ± 0.6 | –
303.15 K, x1 = 0.0287 | 1046.1 ± 1 | 1564 ± 1.2 | – | –
303.15 K, x1 = 0.0466 | 1068.7 ± 1 | 1581.1 ± 1.2 | – | –
303.15 K, x1 = 0.0492 | – | – | – | 1.092 ± 0.088
303.15 K, x1 = 0.0551 | – | – | 54.8 ± 0.6 | –
303.15 K, x1 = 0.0766 | 1097.8 ± 1 | 1599.5 ± 1.3 | – | –
303.15 K, x1 = 0.0952 | – | – | – | 1.278 ± 0.1
303.15 K, x1 = 0.0964 | 1112.5 ± 1 | 1607.8 ± 1.3 | – | –
303.15 K, x1 = 0.1008 | – | – | 52.8 ± 0.6 | –
303.15 K, x1 = 0.1522 | – | – | 51.6 ± 0.6 | –
303.15 K, x1 = 0.1948 | – | – | – | 2.334 ± 0.19
303.15 K, x1 = 0.1965 | – | – | 50.9 ± 0.6 | –
303.15 K, x1 = 0.2011 | 1161.7 ± 1 | 1627.8 ± 1.3 | – | –
303.15 K, x1 = 0.2588 | – | – | – | 3.141 ± 0.25
303.15 K, x1 = 0.2858 | 1184.2 ± 1 | 1630.3 ± 1.4 | – | –
303.15 K, x1 = 0.2947 | – | – | 50.6 ± 0.6 | –
303.15 K, x1 = 0.3451 | – | – | 50.5 ± 0.6 | –
303.15 K, x1 = 0.3891 | – | – | – | 6.162 ± 0.49
303.15 K, x1 = 0.3968 | – | – | 50.3 ± 0.6 | –
303.15 K, x1 = 0.3993 | 1203.8 ± 1 | 1629.5 ± 1.5 | – | –
303.15 K, x1 = 0.4779 | – | – | 50.2 ± 0.6 | –
303.15 K, x1 = 0.4894 | – | – | – | 9.757 ± 0.78
303.15 K, x1 = 0.4979 | 1215.7 ± 1.1 | 1627.3 ± 1.6 | – | –
303.15 K, x1 = 0.5772 | 1223.1 ± 1.1 | 1625.1 ± 1.7 | – | –
303.15 K, x1 = 0.5827 | – | – | 50.3 ± 0.6 | –
303.15 K, x1 = 0.5942 | – | – | – | 14.93 ± 1.2
303.15 K, x1 = 0.6015 | 1225 ± 1.1 | 1624.6 ± 1.7 | – | –
303.15 K, x1 = 0.6695 | 1230 ± 1.2 | 1623.3 ± 1.8 | – | –
303.15 K, x1 = 0.6846 | – | – | 50.3 ± 0.6 | –
303.15 K, x1 = 0.6952 | – | – | – | 22.56 ± 1.8
303.15 K, x1 = 0.7309 | 1233.9 ± 1.2 | 1622.6 ± 1.9 | – | –
303.15 K, x1 = 0.7771 | 1236.7 ± 1.3 | 1622.4 ± 2 | – | –
303.15 K, x1 = 0.7861 | – | – | 50.3 ± 0.7 | –
303.15 K, x1 = 0.7903 | – | – | – | 34.94 ± 2.8
303.15 K, x1 = 0.8395 | 1240.2 ± 1.4 | 1623 ± 2.1 | – | –
303.15 K, x1 = 0.8862 | – | – | 50.3 ± 0.7 | –
303.15 K, x1 = 0.8982 | – | – | – | 58.66 ± 4.7
303.15 K, x1 = 0.9054 | 1243.9 ± 1.5 | 1624.6 ± 2.2 | – | –
303.15 K, x1 = 0.9425 | – | – | 50.4 ± 0.7 | –
303.15 K, x1 = 0.943 | – | – | – | 70.68 ± 5.7
303.15 K, x1 = 0.9633 | 1247.3 ± 1.5 | 1627.3 ± 2.3 | – | –
303.15 K, x1 = 1 | 1249.5 ± 1.6 | 1629.8 ± 2.3 | 50.5 ± 0.7 | 90.75 ± 7.4
